Measured values published in US20230277483A1, “COMPOSITIONS AND METHODS TO TREAT INFLAMMATION” (University of Iowa Research Foundation, priority 2022, published 2023).

Assays:
[1] = system: human monocyte-derived macrophages (MDM) using THP-1 cells; test: Proinflammatory cytokines after Pg-LPS challenge (qRT-PCR, ELISA); format: cell-based; conditions: at 0.1 μg after Pg-LPS challenge
Method: (§1) Sg metabolites modulate proinflammatory cytokines in human periodontal associated cells in vitro. Sg were cultured in a total of 40 ml DMEM for 24 hrs. After 200 μl of Sg suspension reached 0.2 at OD600 value in a 96-well plate, the Sg metabolites were collected by centrifugation at 3000 g for 10 min and then filtered through a 0.22 μm filter. No toxicity of Sg metabolites was detected using an MTT assay on primary human bone marrow mesenchymal stromal cells (BMSCs) and primary human gingival fibroblasts (HGF) (data no shown). The modulation of Sg metabolites on inflammatory cytokines was tested using human monocyte-derived macrophages (MDM) and HGF. The MDM were generated by inducing a human macrophage cell line (THP-1) using PMA at 10 ng/ml. The MDM at 2×10^6 cells/per well and HGF at 2×10^4 cells/per well were cultured in 24-well plates using DMEM with 10% FBS and 1% PS. The Sg metabolites at 1 and 5% v/v were added and incubated for 24 hrs before challenging with Pg-LPS at 100 ng/ml.
(§2) Human monocyte-derived macrophages (MDM) using THP-1 cells and HGF were cultured in a 24-well plate with DMEM and challenged with Pg-LPS at 100 ng/ml.
(§3) In addition, freshly isolated epidydimal white adipose tissues (eWAT) from mice on a HFD for 16 weeks were minced and cultured in 24-well plates and treated with HCA at 0.5 and 1.0 μM in DMEM/F-12 containing 10% cosmic calf serum (CCS) and 1% penicillin-streptomycin (basal growth media, BGM). […] These preliminary data are strong evidence that Sg metabolites have the potential to modulate host inflammatory responses and attenuate inflammation.
HCA promotes proliferation of health related bacteria and inhibits proliferation and attachment of periodontopathogenic bacteria. Promoting the growth of health-related commensal bacteria while inhibiting proliferation and attachment of pathogenic bacteria may be effective at preventing or treating periodontal inflammation. To determine if HCA has an effect on the growth properties of commensal bacteria and periodontopathogens, HCA at different concentrations was added to aerobic culture of S. mitis and S. oralis and anaerobic culture of T. denticola as described in our published manuscript (see detail in Shu et al, Journal of Periodontology, 2022). FIGS. 18A-C summarize the functions of HCA on the proliferation of specific commensal and pathogenic bacteria. […] Furthermore, the function of HCA on P. gingivalis attachment, a key parameter of adhesion and biofilm formation by periodontopathogenic bacteria, was investigated. […] Attachment measurements of P. gingivalis were performed based on our published studies (see detail in Shu et al, Journal of Periodontology, 2022). […] To test the biocompatibility and anti-inflammatory properties of HCA, human monocyte-derived macrophages (MDM) and gingival fibroblasts (HGF) were prepared as described in our previous studies. The cells were then treated with HCA from 0.1 to 50 μM. No toxicity was observed after treatment with different concentrations of HCA in either cell type using an MTT assay (FIGS. 19A and B, left column). The anti-inflammatory function of HCA on MDM and HGF after exposure to P. gingivalis lipopolysaccharide (PG-LPS) was investigated. […] HCA mitigates inflammation and affects the composition of microbiomes in vivo. Recent studies investigated whether HCA modulates periodontal inflammation using a mouse model. To induce periodontal inflammation, a total of 1 μl Pg-LPS at 10 μg/μl was directly injected twice a week into the interdental region between maxillary molars of C57BL/6J mice using a Hamilton1700 series syringe according to our previously published studies. 100 μl of HCA at 0.5 μM was administrated I.P. three time a week. […] It was also tested whether HCA affects the composition of the microbiome in vivo. For this purpose, high fat diet-induced obese (DIO) mice (The Jackson Laboratory) received I.P, administration of 100 μl of HCA at 0.2 and 0.5 μM three times a week for 3 weeks. […]

[2] = system: human gingival fibroblasts (HGF); test: Proinflammatory cytokines after Pg-LPS challenge (qRT-PCR, ELISA, antibody array); format: cell-based; conditions: for proinflammatory cytokines (transcripts of IL-1β, 6 and 8): at 0.1 μg after Pg-LPS challenge
Method: as §1
(§4) L-Norleucine as well as other metabolites modulate proinflammatory cytokines in macrophages and HGF. L-Norleucine was obtained commercially (Sigma) and dissolved in DMEM. Mouse macrophages and human HGF were cultured with DMEM supplemented with different concentrations of L-Norleucine and subsequently challenged with Pg-LPS at 100 ng/ml.
as §2, §3
HCA promotes proliferation of health related bacteria and inhibits proliferation and attachment of periodontopathogenic bacteria. Promoting the growth of health-related commensal bacteria while inhibiting proliferation and attachment of pathogenic bacteria may be effective at preventing or treating periodontal inflammation. To determine if HCA has an effect on the growth properties of commensal bacteria and periodontopathogens, HCA at different concentrations was added to aerobic culture of S. mitis and S. oralis and anaerobic culture of T. denticola as described in our published manuscript (see detail in Shu et al, Journal of Periodontology, 2022). FIGS. 18A-C summarize the functions of HCA on the proliferation of specific commensal and pathogenic bacteria. […] Furthermore, the function of HCA on P. gingivalis attachment, a key parameter of adhesion and biofilm formation by periodontopathogenic bacteria, was investigated. […] Attachment measurements of P. gingivalis were performed based on our published studies (see detail in Shu et al, Journal of Periodontology, 2022). […] To test the biocompatibility and anti-inflammatory properties of HCA, human monocyte-derived macrophages (MDM) and gingival fibroblasts (HGF) were prepared as described in our previous studies. The cells were then treated with HCA from 0.1 to 50 μM. No toxicity was observed after treatment with different concentrations of HCA in either cell type using an MTT assay (FIGS. 19A and B, left column). The anti-inflammatory function of HCA on MDM and HGF after exposure to P. gingivalis lipopolysaccharide (PG-LPS) was investigated. […] HCA mitigates inflammation and affects the composition of microbiomes in vivo. Recent studies investigated whether HCA modulates periodontal inflammation using a mouse model. To induce periodontal inflammation, a total of 1 μl Pg-LPS at 10 μg/μl was directly injected twice a week into the interdental region between maxillary molars of C57BL/6J mice using a Hamilton1700 series syringe according to our previously published studies. […]

Human MDM = test: Anti-inflammatory miR expression after Pg-LPS challenge; format: cell-based; conditions: 24 hours after Pg-LPS challenge
Method: (§5) FIGS. 11A-11B. Sg metabolites upregulate anti-inflammatory miRs in human macrophages and HGF. A-B: Relative transcript changes of miR-200c, 146a, and 21 in HGF (A) and human MDM (B) treated with AICAR, MA, HCA, and HPLA 24 hours after Pg-LPS challenge; performed in duplicate.
Human MDM was cultured in a 24-well plate and treated with HCA at different concentrations and Pg-LPS at 100 ng/mi for 24 hrs. […] (All data are presented as means±SEM. *: p<0.05 vs untreated, ANOVA).

HGF = test: as above; format: cell-based, human; conditions: 24 hours after Pg-LPS challenge
Method: as §5

Mouse macrophages = test: Proinflammatory cytokine transcripts after Pg-LPS challenge; format: cell-based
Method: as §4

[3] = L-Norleucine at 1 and 5 μM, Pg-LPS at 100 ng/ml

| SMILES | proinflammatory cytokines (IL-6 transcript and IL-6 protein in supernatants) [1] | proinflammatory cytokines (transcripts of IL-1β, 6 and 8) [2] | anti-inflammatory miRs (miR-200c, 146a, and 21) (Human MDM) | anti-inflammatory miRs (miR-200c, 146a, and 21) (HGF) | transcripts of IL-1β, 6, and 8 [2, 3] | IL-6 and IL-8 in macrophages (Mouse macrophages; L-Norleucine) | transcripts of IL-1β, 6, and 8 (Mouse macrophages; [3]) |
| --- | --- | --- | --- | --- | --- | --- | --- |
| NC(=O)c1ncn([C@@H]2O[C@H](CO)[C@@H](O)[C@H]2O)c1N [AICAR, acadesine] | modulate | modulate | upregulate | upregulate |  |  |  |
| O=C(O)C(O)Cc1ccc(O)cc1 (stereo not drawn) [HPLA, 4-hydroxyphenyllactic acid] | modulate | modulate | upregulate | upregulate |  |  |  |
| CCCC[C@H](N)C(=O)O [L-Norleucine] |  |  |  |  | effectively downregulated | effectively downregulated | effectively downregulated |
| O=C(O)CC(O)C(=O)O (stereo not drawn) [MA, malic acid] | modulate | modulate | upregulate | upregulate |  |  |  |
